Consider 22 compounds from patent US9216992B2, “Thieno[3,2-c]pyridine potassium channel inhibitors” (Xention Limited, priority 2005, dated 2015).

The inhibition is the change of the read-out against control, counted positive when it falls.

One assay deals with T1, human Kv1.3 (Homo sapiens, UniProt P22001).
T1 construct: expressed in transfected cells; host or cells: stably transfected cells
Put plainly: Kv1.3 Autopatch Electrophysiology. The format is cell-based. The following applies: 1 μM compound, CHO cells stably transfected with human Kv1.3, AutoPatch whole cell mode, room temperature; for inhibition at 1 µM: read-out: Kv 1.3% Inhibition at 1 μM. On the procedure: Kv1.3 Autopatch Electrophysiology Method
Cells stably transfected with cDNA for human Kv1.3 (in pcDNA3.1) were grown in Ex-cell 302 serum-free medium for CHO cells, supplemented with 10 μl/ml [100×] glutamine, 500 μg/ml G418 ([…]), and 1% HT supplement (50×, hypoxanthine and thymidine). Compounds were tested on these cells using the AutoPatch technology in whole cell mode.
The external bathing solution contained (in mM): 150 NaCl, 10 KCl, 1 MgCl2, 3 CaCl2, 10 HEPES, pH 7.4 with NaOH. Patch pipettes were filled with an electrode solution of composition (in mM): 100 K-Gluconate, 20 KCl, 1 MgCl2, 1 CaCl2, 10 HEPES, 11 EGTA, 5 ATP—Na2, 2 Glutathione pH 7.2 with KOH.
(§1) Compounds were dissolved in DMSO (100%) and made up in the external bather at a concentration of 1 μM. All experiments were conducted at room temperature (22-24° C.).
(§2) A cell suspension (10 ml), with a density of 100,000 cells/ml, was aliquoted into a 15 ml centrifuge tube and transferred to an incubator (37° C., 5% CO2) for approximately one hour before use. Following 60 min incubation, a tube was taken and centrifuged at 1000 rpm for 4 mins at room temperature. 9.5 ml supernatant was thence discarded, leaving a cell pellet at the bottom of the tube. The pellet was then resuspended using 100 μl of cold (4° C.), filtered (0.22 μm), 0.2% BSA/bather solution (0.02 g BSA/10 ml bather). The bottom of the tube was manually agitated gently until the solution became cloudy with cells. The 100 μl cell resuspension solution was then stored on the bench at 4° C. (using a Peltier-based temperature control device) until used.
(§3) A length of capillary glass (1B150F-4, WPI) was dipped into the cell suspension solution, such that ˜3 cm column of fluid was taken up by capillary action. A Ag/AgCl wire was dropped into the non-dipped end of the capillary also. The outside of the solution-filled end of the capillary was then dried and the capillary was loaded into the AutoPatch™. Borosilicate glass patch pipettes (from 1.5 mm OD, thin-walled filamented, GC150-TF capillary glass, Harvard) were pulled using a DMZ pipette puller (Zeitz Instruments), and were back-filled using the internal pipette solution, being careful that no bubbles remain at the tip or in the body of the pipette. Patch pipettes typically had resistances of 2.3-3.5 MΩ. Once filled, the pipette tip and a proportion of the shaft (˜15 mm) were dipped into Sigmacote (Sigma). The recording pipette was then loaded into the AutoPatch™. Automated patch-clamping was initiated by the operator, but thereafter AutoPatch.exe continued the experiment providing that pre-set conditions and criteria were satisfied.
(§4) Whole cell patch-clamp recordings were made using the AutoPatch™ rig, which incorporated an EPC9 or EPC10 amplifier (HEKA, Germany) under control of Pulse software (v8.54 or v8.76, HEKA, Germany), a motion controller with 2 translators (Newport, UK), valve controller (VF1) and a c-level suction device all at room temperature (22-24° C.). This equipment was completely under the control of AutoPatch.exe and operator intervention was only made when there was a requirement to refill the drug reservoirs or to prevent the loss of a cell due to a technical error. Cells with an Rseries greater than 18 MΩ were discounted from the experiment.
Qualification stages prior to perfusion and drug application ensured that the observed current met the criteria for the experiment. Only those cells with an IK>400 pA were used for experiments. Cells were continuously perfused with external solution at a flow rate of 1.8-2 ml/minute. […] Online analysis of the hKv1.3 current during the application of compounds was performed by the AutoPatch™ software. Voltage-step protocols and analysis of data was performed as described for conventional electrophysiology.
(§5) Electrophysiology voltage-step protocols and analysis of data was performed as follows. Data was sampled at 5 kHz, and filtered with a −3 dB bandwidth of 2.5 kHz. Cells were held at a voltage of −80 mV. […]

The target in the next assay is T2, human Kv1.5 (Homo sapiens, UniProt P22460).
T2 construct: expressed in transfected cells; host or cells: stably transfected cells
The assay can be described thus: Kv1.5 Autopatch Electrophysiology. The format is cell-based. Conditions: 1 μM compound, CHO cells stably transfected with human Kv1.5, AutoPatch whole cell mode, room temperature; for inhibition at 1 µM: read-out: Kv 1.5% Inhibition at 1 μM. On the procedure: Kv1.5 Autopatch Electrophysiology Method
Cells stably transfected with cDNA for human Kv1.5 (in pEF6::VA-His-TOPO) were grown in Ex-cell 302 serum-free medium for CHO cells, supplemented with 10 μl/ml [100×] glutamine, 5 μg/ml blasticidin and 1% HT supplement (50×, hypoxanthine and thymidine). Compounds were tested on these cells using the AutoPatch technology in whole cell mode.
The external bathing solution contained (in mM): 150 NaCl, 10 KCl, 1 MgCl2, 3 CaCl2, 10 HEPES, pH 7.4 with NaOH. Patch pipettes were filled with an electrode solution of composition (in mM): 160 KCl, 0.5 MgCl2, 10 HEPES, 1 EGTA, pH 7.4 with KOH.
as §1, §2, §3, §4
Qualification stages prior to perfusion and drug application ensured that the observed current met the criteria for the experiment. Only those cells with an IK>500 pA were used for experiments. Cells were continuously perfused with external solution at a flow rate of 1.8-2 ml/minute. […] Online analysis of the hKv1.5 current during the application of compounds was performed by the AutoPatch™ software. Voltage-step protocols and analysis of data was performed as described for conventional electrophysiology.
as §5

Structures are written as SMILES.

T1 sequence (P22001 whole entry): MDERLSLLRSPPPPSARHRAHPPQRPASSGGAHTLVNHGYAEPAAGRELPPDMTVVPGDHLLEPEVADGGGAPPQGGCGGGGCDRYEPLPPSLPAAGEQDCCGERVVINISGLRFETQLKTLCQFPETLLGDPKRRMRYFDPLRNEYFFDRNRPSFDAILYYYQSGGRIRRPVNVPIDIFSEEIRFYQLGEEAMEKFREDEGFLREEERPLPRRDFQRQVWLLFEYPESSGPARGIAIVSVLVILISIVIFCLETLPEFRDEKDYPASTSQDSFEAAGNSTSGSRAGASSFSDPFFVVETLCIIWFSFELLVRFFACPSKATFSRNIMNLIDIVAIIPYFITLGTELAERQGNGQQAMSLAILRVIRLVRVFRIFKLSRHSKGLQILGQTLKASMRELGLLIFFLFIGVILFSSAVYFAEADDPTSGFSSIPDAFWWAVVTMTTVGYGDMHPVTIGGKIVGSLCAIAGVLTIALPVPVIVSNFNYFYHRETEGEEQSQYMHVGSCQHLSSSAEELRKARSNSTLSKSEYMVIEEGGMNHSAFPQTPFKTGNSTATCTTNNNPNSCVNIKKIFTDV
T2 sequence (P22460 whole entry): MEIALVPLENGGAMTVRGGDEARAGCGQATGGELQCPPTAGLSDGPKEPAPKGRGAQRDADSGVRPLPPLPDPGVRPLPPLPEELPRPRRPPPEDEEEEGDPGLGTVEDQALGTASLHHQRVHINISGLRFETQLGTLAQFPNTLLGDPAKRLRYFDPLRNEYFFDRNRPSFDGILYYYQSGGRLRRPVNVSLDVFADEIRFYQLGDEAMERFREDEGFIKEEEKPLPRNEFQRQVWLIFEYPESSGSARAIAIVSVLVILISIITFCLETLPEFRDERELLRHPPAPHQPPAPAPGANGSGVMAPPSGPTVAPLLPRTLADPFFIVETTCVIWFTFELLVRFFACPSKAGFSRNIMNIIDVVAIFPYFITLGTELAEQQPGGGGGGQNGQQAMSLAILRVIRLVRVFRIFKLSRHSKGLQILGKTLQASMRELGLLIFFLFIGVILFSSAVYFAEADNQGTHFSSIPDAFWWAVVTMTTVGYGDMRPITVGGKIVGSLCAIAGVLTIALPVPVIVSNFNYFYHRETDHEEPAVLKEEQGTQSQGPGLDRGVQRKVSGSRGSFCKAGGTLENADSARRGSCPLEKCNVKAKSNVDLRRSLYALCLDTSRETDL

For the compound `Cc1ccc(-c2csc3c(-c4cccc(O)c4)cnc(NCc4ccccc4)c23)cc1` [Example 36, 3-(4-Benzylamino-3-p-tolyl-thieno[3,2-c]pyridin-7-yl)-phenol], the results for the inhibition at 1 µM on human Kv1.3 and on human Kv1.5 were 15.5% and 52.4%, respectively.
The like results for `c1ccc(-c2csc3ccnc(NCc4ccccn4)c23)cc1` [Example 12, (3-Phenyl-thieno[3,2-c]pyridin-4-yl)-pyridin-2ylmethyl-amine] were, in that order, 46.1% and 59.6%.
The like results for `c1ccc(-c2csc3ccnc(NCc4ccc5c(c4)OCCO5)c23)cc1` [Example 18, (2,3-Dihydro-benzo[1,4]dioxin-6-ylmethyl)-(3-phenyl-thieno[3,2-c]pyridin-4-yl)-amine] were, in that order, 76.9% and 85.3%.
The like results for `Cc1ccc(-c2csc3c(-c4cccc(F)c4)cnc(NCc4ccccc4)c23)cc1` [Example 44, Benzyl-[7-(3-fluoro-phenyl)-3-p-tolyl-thieno[3,2-c]pyridin-4-yl]-amine] were, in that order, 29.6% and 18.8%.
In the case of `c1ccc(CNc2nccc3scc(-c4ccc5c(c4)OCO5)c23)cc1` [Example 25, (3-Benzo[1,3]dioxol-5-yl-thieno[3,2-c]pyridin-4-yl)-benzyl-amine], the values for the inhibition at 1 µM at human Kv1.3 and on human Kv1.5 were 58.1% and 70.5%, respectively.
The matching figures for `COc1cccc(-c2csc3ccnc(NCc4ccc5c(c4)OCCO5)c23)c1` [Example 19, (2,3-Dihydro-benzo[1,4]dioxin-6-ylmethyl)-[3-(3-methoxy-phenyl)-thieno[3,2-c]pyridin-4-yl)-amine]: 73.5% and 75.6%.
As to `Cc1cccnc1CNc1nccc2scc(-c3ccccc3)c12` [Example 31, (3-Methyl-pyridin-2-ylmethyl)-(3-phenyl-thieno[3,2-c]pyridin-4-yl)-amine], the “Kv 1.3% Inhibition at 1 μM” value on human Kv1.3 is 71.8%. Also, the “Kv 1.5% Inhibition at 1 μM” value at human Kv1.5 is 78.4%.
As to `Fc1ccc(-c2csc3ccnc(NCc4ccccc4)c23)cc1` [Example 22, Benzyl-[3-(4-fluoro-phenyl)-thieno[3,2-c]pyridin-4-yl]-amine], the results for the inhibition at 1 µM at human Kv1.3 and at human Kv1.5 were 68.6% and 90.2%, respectively.
The matching figures for `Cc1ccc(-c2csc3c(-c4ccccc4O)cnc(NCc4ccccc4)c23)cc1` [Example 35, 2-(4-Benzylamino-3-p-tolyl-thieno[3,2-c]pyridin-7-yl)-phenol]: 12.6% and 33.3%.
Turning to `Cc1ccc(-c2csc3c(-c4cccc(S(C)(=O)=O)c4)cnc(NCc4ccccc4)c23)cc1` [Example 41, Benzyl-[7-(3-methanesulfonyl-phenyl)-3-p-tolyl-thieno[3,2-c]pyridin-4-yl]-amine], the inhibition at 1 µM was found to be 26.3% on human Kv1.3 and 39.8% on human Kv1.5.
The like results for `c1csc(CNc2nccc3scc(-c4ccc5c(c4)OCO5)c23)c1` [Example 16, (3-Benzo[1,3]dioxol-5-yl-thieno[3,2-c]pyridin-4-yl)-thiophen-2-ylmethyl-amine] were, in that order, 90.3% and 81.2%.
For the compound `Fc1ccc(-c2csc3ccnc(NCc4cccs4)c23)cc1` [Example 15, [3-(4-Fluoro-phenyl)-thieno[3,2-c]pyridin-4-yl]thiophen-2-ylmethyl-amine], the inhibition at 1 µM is 91.9% at human Kv1.3 and 87.2% on human Kv1.5.
The matching figures for `c1ccc(-c2csc3ccnc(NCc4ccco4)c23)cc1` [Example 26, Furan-2-ylmethyl-(3-phenyl-thieno[3,2-c]pyridin-4-yl)amine]: 48.4% and 80.4%.
The like results for `Fc1ccc(-c2csc3ccnc(NCc4ccc5c(c4)OCCO5)c23)cc1` [Example 17, (2,3-Dihydro-benzo[1,4]dioxin-6-ylmethyl)-[3-(4-fluoro-phenyl)-thieno[3,2-c]pyridin-4-yl]-amine] were, in that order, 59.6% and 86.1%.
The matching figures for `Cc1ccc(-c2csc3c(-c4ccccc4)cnc(NCc4ccccc4)c23)cc1` [Example 34, Benzyl-(7-phenyl-3-p-tolyl-thieno[3,2-c]pyridine-4-yl)-amine]: 8.1% and 25.6%.
Consider `c1cc2scc(-c3ccc4c(c3)OCO4)c2c(NCc2ccc3c(c2)OCCO3)n1` [Example 20, (3-Benzo[1,3]dioxol-5-yl-thieno[3,2-c]pyridin-4-yl)-(2,3-dihydro-benzo[1,4]dioxin-6-ylmethyl)-amine], for which the inhibition at 1 µM at human Kv1.3 is 83.5%; at human Kv1.5 it was 90.2%.
The matching figures for `COc1cccc(-c2csc3ccnc(NCc4cccs4)c23)c1` [Example 13, [3-(3-Methoxy-phenyl)-thieno[3,2-c]pyridin-4-yl]-thiophen-2-ylmethyl-amine]: 83.2% and 89.4%.
The like results for `Cc1ccc(-c2csc3c(-c4cccc(C(=O)O)c4)cnc(NCc4ccccc4)c23)cc1` [Example 38, 3-(4-Benzylamino-3-p-tolyl-thieno[3,2-c]pyridin-7-yl)-benzoic acid] were, in that order, 41.3% and 84.8%.
The matching figures for `Cc1ccc(-c2csc3c(-c4ccccc4F)cnc(NCc4ccccc4)c23)cc1` [Example 43, Benzyl-[7-(2-fluoro-phenyl)-3-p-tolyl-thieno[3,2-c]pyridin-4-yl]-amine]: 13.6% and 26.3%.
In the case of `c1ccc(-c2csc3ccnc(NCc4cccs4)c23)cc1` [Example 14, (3-Phenyl-thieno[3,2-c]pyridin-4-yl)-thiophen-2-ylmethyl-amine], the inhibition at 1 µM at human Kv1.3 came out at 91.2%; at human Kv1.5 it was 81.9%.
On to `c1ccc(CCCCNc2nccc3scc(-c4ccccc4)c23)cc1` [Example 30, (4-Phenyl-butyl)-(3-phenyl-thieno[3,2-c]pyridin-4-yl)-amine], for which the “Kv 1.3% Inhibition at 1 μM” value on human Kv1.3 was 82.8%. The “Kv 1.5% Inhibition at 1 μM” value on human Kv1.5 amounted to 65.8%.
For `Cc1ccc(-c2cnc(NCc3ccccc3)c3c(-c4ccc(C)cc4)csc23)cc1` [Example 33, Benzyl-(3,7-di-p-tolyl-thieno[3,2-c]pyridine-4-yl)-amine], the inhibition at 1 µM on human Kv1.3 worked out at 24.4%; at human Kv1.5 it was 39.2%.
